Reference: patent publication US10071077B2, “Use of enoximone in the treatment of atopic immune-related disorders, in pharmaceutical composition as well as in pharmaceutical preparation” (BREAKTHROUGH MEDICAL RESEARCH B.V., priority 2014, dated 2018)

How the values were obtained:
[1] = system: HDM allergic airway inflammation; test: HDM asthma model, lower enoximone treatment frequency; type: in vivo, mice
Experimental: (§1) To induce airway inflammation, mice were anaesthetized with isofluorane and treated intratracheally (i.t.) with 1-10 μg house dust mite (HDM; Greer Laboratories) allergen extract in 80 μL phosphate buffered saline (PBS) on day 0 or using PBS only. Ten days later, anesthetized mice were challenged with 1-10 μg HDM in 50 μL PBS intranasally (i.n.) for 5 consecutive days. Mice were sacrificed 24 hr after last challenge and broncho alveolar lavage was performed by flushing the lungs 3 times with 1 ml PBS containing Ethylenediaminetetraacetic acid (EDTA, Sigma-Aldrich).
Next we investigate if it is possible to lower the active enoximone treatment frequency when given it admixed to the HDM challenge solution (FIG. 2A). We compare the daily treatment frequency with once in two days (each other day) and once in three days. Mice treated with HDM admixed with diluent show clear eosinophilic airway inflammation (FIG. 2B). […] Moreover along this line also numbers of T-cells drop when treated with enoximone (FIG. 2B). […] Moreover the proportion of IL-4 producing T-cells is lower when enoximone is given less frequently than daily (FIG. 3).
(A) Experimental HDM asthma design showing intratracheal sensitisation (s) of 10 μg HDM or PBS as control and challenge (c) with 10 μg HDM intra nasal. The following schedules were used diluent (d) (5 μl) during challenge (for 5 days ddddd), enoximone (5 μl 5 mg/ml) during challenge (for 5 days eeeee), enoximone once in two days (edede) or (deded) and once in three days enoximone (edded). (B) Total cells and quantification of flow cytometric analyses of eosinophils and CD4 T-cells in BAL of PBS treated (black bars) and several frequencies of enoximone treated mice (gray bars). Results are expressed as means±SEM.
FIG. 3 Quantification of flow cytometric analyses of cytokine producing CD4 T-cells and proportion of IL-4 positive CD4 T-cells in BAL. Results are expressed as means±SEM. n=3-8 animals per group. Statistical evaluations were performed only between different treatments of groups (*p<0.05).

[2] = system: established HDM allergic airway inflammation; test: Established HDM allergy model, treatment strategy 2; type: in vivo, C57bl/6 mice; details: 25 μg enoximone admixed with 5 μg HDM
Experimental: as §1
C57bl/6 mice were sensitized with 10 μg HDM on day 0 and challenged with 5 μg HDM for 5 days on day 10-14. Then mice were treated with 5 μg HDM admixed with 25 μg enoximone or diluent for 5 days on days 15-19. 24 hr after last challenge measurements were performed.
Next, we attempted to determine whether enoximone is potent enough to suppress allergic inflammation when asthma is already fully established. Animals were challenged with an additional session of 5 challenges with HDM mimicking the situation in asthma patients. Asthma mice and PBS controls were then challenged again on five successive days by instilling a droplet of 50 μl PBS (PBS PBS dil), or HDM (5 μg) in 50 μl PBS (HDM HDM dil) or HDM (5 μg) in 50 μl PBS admixed with enoximone (25 μg) (HDM HDM enox)(FIG. 7A).
(A) Experimental HDM asthma design showing intratracheal sensitization (s) of […] or PBS as control and intra nasal challenge (c) with 5 μg HDM followed by challenge and treatment (ct). (B) Quantification of flow cytometric analyses of eosinophils in BAL of PBS treated mice (black bars) and enoximone treated mice (light grey bars). Results are expressed as means±SEM. (C) Quantification of flow cytometric analyses of ILC2s, (D) CD3 and (E) macrophages in BAL. Results are expressed as means±SEM. n=4-8 animals per group. Statistical evaluations were performed only between different treatments of groups. (*p<0.05 or **p<0.01).

[3] = metabolised to a less active sulfoxide, excreted via the kidneys; cited from earlier work
[4] = system: Human basophils stimulated with anti IgE; test: Basophil degranulation assay; type: cell-based; details: anti IgE stimulation
Experimental: PBMCs including basophils were treated with diluent or several doses of enoximone at 37° C. for half an hour. Next the cells were washed and incubated with anti IgE antibodies 5 µg/ml for 20 minutes at 37° C. for 20 minutes washed again at 4° C. and consequently stained for flowcytometric with CD123-BV650, CD203c-PE, CD107a-FITC, HLA-DR-PerCPCy5.5 and FcεRI-APC at 4° C. for 30 minutes. Cells were acquire with a LSRII and analyzed with Flowjo X. Basophils were identified as FcεRI+, CD123+ and HLA-DR− cells. Degranulated and/or activated basophils stained positive for CD203c and CD107a. 100% degranulated basophils were set as the % of degranulated basophils treated with diluent and stimulated with 5 µg/ml anti IgE. Proportion of inhibition was calculated as % of degranulated basophils divided by the maximal % of diluent treated degranulated basophils.
FIG. 4 Human PBMCs including basophils were treated with diluent or several doses of enoximone and cells were activated by incubation with anti IgE antibodies. Data plotted show the mean proportion of inhibition was calculated as % degranulated basophils (CD123^+FceRI^+HLA-DR^− CD107a^+CD203c^+ cells) pretreated with enoximone divided by % of diluent treated degranulated basophils (n=3).

[5] = system: Human PBMCs stimulated with tetanus toxoid (CD4 T-cells); type: cell-based

For `CSc1ccc(C(=O)c2[nH]c(=O)[nH]c2C)cc1` [enoximone, 1,3-dihydro-4-methyl-5-[4-(methylthio)benzoyl]-2H-imidazol-2-on], the “numbers of T-cells in BAL” value ([1]; 25 μg enoximone admixed with HDM challenge, FIG. 2B) was “drop”, the “number of cytokine (IL-4, IL-5, IL-13, IL-17 and IFNγ) producing T-cells in BAL” value ([1]; 25 μg enoximone admixed with HDM challenge, FIG. 3) was “drop in number” and the eosinophilic inflammation ([1]; 25 μg enoximone admixed with HDM challenge, given every day, FIG. 2B) was “clear reduction”. For the same compound, the eosinophilic inflammation ([1]; 25 μg enoximone admixed with HDM challenge, once in three days, FIG. 2B) was “clear reduction”, the eosinophilic inflammation ([1]; 25 μg enoximone admixed with HDM challenge, once in two days (each other day), FIG. 2B) was “clear reduction” and the “proportion of IL-4 producing T-cells” value ([1]; enoximone given less frequently than daily, FIG. 3) was “lower”. The “numbers of ILC2s in BAL” value ([2]; days 15-19, FIG. 7C) was “significant reduction”, the “numbers of T-cells in BAL” value ([2]; days 15-19, FIG. 7D) was “significant reduction” and the “numbers of macrophages in BAL” value ([2]; days 15-19, FIG. 7E) was “significant reduction”. The “eosinophil numbers in BAL” value ([2]; days 15-19, started after the first 5 HDM challenges, FIG. 7B) was “strong significant reductions”, the half life [3] was “approximately 4 hours” and the inhibition at 20 µM ([4]; Homo sapiens, 20 μM enoximone, FIG. 4, read-out: inhibition of basophil activation/degranulation (CD107a and CD203c positivity)) was over 50%. The inhibition at 1000 µM ([4]; Homo sapiens, 1000 μM enoximone, FIG. 4, read-out: inhibition of basophil activation/degranulation (CD107a and CD203c positivity)) was over 90%, the “basophil activation (CD107a and CD203c positivity)” value ([4]; enoximone 20-1000 μM) was “reduced basophil activation” and the “proliferation of CD4 positive T-cells (proportion of divided CD4 T-cells)” value [5] was “significantly reduced”.
